Reference: ChEMBL document CHEMBL1667786, “Synthesis and biological evaluation of indole-chalcone derivatives as β-amyloid imaging probe” (Bioorg Med Chem Lett, 2011)
Blank lines part the entries; values can stand above or below the compound they belong to. Active and inactive are the calls of the source. The calls are words filed in the database; no cut-off is given here.

Assays:
[1] = Displacement of [125I]IMPY from amyloid beta 1 to 42 after 2 hrs
Mus musculus [2] = species on record: Mus musculus; experiment: Binding affinity to amyloid beta in APP/PS1 transgenic C57 mouse cortex at 1 uM after 10 mins by autoradiography; settings: tested as the 125I-labelled form
Mus musculus [3] = species on record: Mus musculus; experiment: Binding affinity to amyloid beta in APP/PS1 transgenic C57 mouse brain at 1 uM after 10 mins by Thioflavin-S fluorescence assay; type: tissue-based; settings: tested as the 125I-labelled form
Kidney [4] = experiment: Biodistribution in ddY mouse kidney assessed per gram of tissue at 1 uCi, iv after 120 mins; type: ADME, organism-based; settings: in vivo, 2 h
Lung [5] = experiment: Biodistribution in ddY mouse lung assessed per gram of tissue at 1 uCi, iv after 15 mins; type: ADME, organism-based; settings: in vivo, 0.25 h
Stomach [6] = experiment: Biodistribution in ddY mouse stomach assessed per gorgan at 1 uCi, iv after 120 mins; type: ADME, organism-based; settings: in vivo, 2 h
Lung [7] = experiment: Biodistribution in ddY mouse lung assessed per gram of tissue at 1 uCi, iv after 30 mins; type: ADME, organism-based; settings: in vivo, 0.5 h
Heart [8] = experiment: Biodistribution in ddY mouse heart assessed per gram of tissue at 1 uCi, iv after 120 mins; type: ADME, organism-based; settings: in vivo, 2 h
Heart [9] = experiment: Biodistribution in ddY mouse heart assessed per gram of tissue at 1 uCi, iv after 2 mins; type: ADME, organism-based; settings: in vivo
Blood [10] = experiment: Biodistribution in ddY mouse blood assessed per gram of tissue at 1 uCi, iv after 15 mins; type: ADME, organism-based; settings: in vivo, 0.25 h
Brain [11] = experiment: Biodistribution in ddY mouse brain assessed per gram of tissue at 1 uCi, iv after 60 mins; type: ADME, organism-based; settings: in vivo, 1 h
Intestine [12] = experiment: Biodistribution in ddY mouse intestine assessed per gram of tissue at 1 uCi, iv after 120 mins; type: ADME, organism-based; settings: in vivo, 2 h
Intestine [13] = experiment: Biodistribution in ddY mouse intestine assessed per gram of tissue at 1 uCi, iv after 2 mins; type: ADME, organism-based; settings: in vivo
Stomach [14] = experiment: Biodistribution in ddY mouse stomach assessed per gorgan at 1 uCi, iv after 30 mins; type: ADME, organism-based; settings: in vivo, 0.5 h
Blood [15] = experiment: Biodistribution in ddY mouse blood assessed per gram of tissue at 1 uCi, iv after 2 mins; type: ADME, organism-based; settings: in vivo
Heart [16] = experiment: Biodistribution in ddY mouse heart assessed per gram of tissue at 1 uCi, iv after 30 mins; type: ADME, organism-based; settings: in vivo, 0.5 h
Intestine [17] = experiment: Biodistribution in ddY mouse intestine assessed per gram of tissue at 1 uCi, iv after 30 mins; type: ADME, organism-based; settings: in vivo, 0.5 h
Liver [18] = experiment: Biodistribution in ddY mouse liver assessed per gram of tissue at 1 uCi, iv after 60 mins; type: ADME, organism-based; settings: in vivo, 1 h
Stomach [19] = experiment: Biodistribution in ddY mouse stomach assessed per gorgan at 1 uCi, iv after 15 mins; type: ADME, organism-based; settings: in vivo, 0.25 h
Heart [20] = experiment: Biodistribution in ddY mouse heart assessed per gram of tissue at 1 uCi, iv after 60 mins; type: ADME, organism-based; settings: in vivo, 1 h
Kidney [21] = experiment: Biodistribution in ddY mouse kidney assessed per gram of tissue at 1 uCi, iv after 60 mins; type: ADME, organism-based; settings: in vivo, 1 h
Spleen [22] = experiment: Biodistribution in ddY mouse spleen assessed per gram of tissue at 1 uCi, iv after 120 mins; type: ADME, organism-based; settings: in vivo, 2 h
Lung [23] = experiment: Biodistribution in ddY mouse lung assessed per gram of tissue at 1 uCi, iv after 2 mins; type: ADME, organism-based; settings: in vivo
Stomach [24] = experiment: Biodistribution in ddY mouse stomach assessed per gorgan at 1 uCi, iv after 60 mins; type: ADME, organism-based; settings: in vivo, 1 h
Blood [25] = experiment: Biodistribution in ddY mouse blood assessed per gram of tissue at 1 uCi, iv after 60 mins; type: ADME, organism-based; settings: in vivo, 1 h
Stomach [26] = experiment: Biodistribution in ddY mouse stomach assessed per gorgan at 1 uCi, iv after 2 mins; type: ADME, organism-based; settings: in vivo
Heart [27] = experiment: Biodistribution in ddY mouse heart assessed per gram of tissue at 1 uCi, iv after 15 mins; type: ADME, organism-based; settings: in vivo, 0.25 h
Kidney [28] = experiment: Biodistribution in ddY mouse kidney assessed per gram of tissue at 1 uCi, iv after 15 mins; type: ADME, organism-based; settings: in vivo, 0.25 h
Brain [29] = experiment: Biodistribution in ddY mouse brain assessed per gram of tissue at 1 uCi, iv after 15 mins; type: ADME, organism-based; settings: in vivo, 0.25 h
Brain [30] = experiment: Biodistribution in ddY mouse brain assessed per gram of tissue at 1 uCi, iv after 120 mins; type: ADME, organism-based; settings: in vivo, 2 h
Liver [31] = experiment: Biodistribution in ddY mouse liver assessed per gram of tissue at 1 uCi, iv after 120 mins; type: ADME, organism-based; settings: in vivo, 2 h
Liver [32] = experiment: Biodistribution in ddY mouse liver assessed per gram of tissue at 1 uCi, iv after 15 mins; type: ADME, organism-based; settings: in vivo, 0.25 h
Lung [33] = experiment: Biodistribution in ddY mouse lung assessed per gram of tissue at 1 uCi, iv after 120 mins; type: ADME, organism-based; settings: in vivo, 2 h
Intestine [34] = experiment: Biodistribution in ddY mouse intestine assessed per gram of tissue at 1 uCi, iv after 60 mins; type: ADME, organism-based; settings: in vivo, 1 h
Brain [35] = experiment: Biodistribution in ddY mouse brain assessed per gram of tissue at 1 uCi, iv after 30 mins; type: ADME, organism-based; settings: in vivo, 0.5 h
Lung [36] = experiment: Biodistribution in ddY mouse lung assessed per gram of tissue at 1 uCi, iv after 60 mins; type: ADME, organism-based; settings: in vivo, 1 h
Intestine [37] = experiment: Biodistribution in ddY mouse intestine assessed per gram of tissue at 1 uCi, iv after 15 mins; type: ADME, organism-based; settings: in vivo, 0.25 h
Blood [38] = experiment: Biodistribution in ddY mouse blood assessed per gram of tissue at 1 uCi, iv after 30 mins; type: ADME, organism-based; settings: in vivo, 0.5 h
Liver [39] = experiment: Biodistribution in ddY mouse liver assessed per gram of tissue at 1 uCi, iv after 30 mins; type: ADME, organism-based; settings: in vivo, 0.5 h
Liver [40] = experiment: Biodistribution in ddY mouse liver assessed per gram of tissue at 1 uCi, iv after 2 mins; type: ADME, organism-based; settings: in vivo
Kidney [41] = experiment: Biodistribution in ddY mouse kidney assessed per gram of tissue at 1 uCi, iv after 30 mins; type: ADME, organism-based; settings: in vivo, 0.5 h
Spleen [42] = experiment: Biodistribution in ddY mouse spleen assessed per gram of tissue at 1 uCi, iv after 60 mins; type: ADME, organism-based; settings: in vivo, 1 h
Blood [43] = experiment: Biodistribution in ddY mouse blood assessed per gram of tissue at 1 uCi, iv after 120 mins; type: ADME, organism-based; settings: in vivo, 2 h
Spleen [44] = experiment: Biodistribution in ddY mouse spleen assessed per gram of tissue at 1 uCi, iv after 30 mins; type: ADME, organism-based; settings: in vivo, 0.5 h
Brain [45] = experiment: Biodistribution in ddY mouse brain assessed per gram of tissue at 1 uCi, iv after 2 mins; type: ADME, organism-based; settings: in vivo
Kidney [46] = experiment: Biodistribution in ddY mouse kidney assessed per gram of tissue at 1 uCi, iv after 2 mins; type: ADME, organism-based; settings: in vivo
Spleen [47] = experiment: Biodistribution in ddY mouse spleen assessed per gram of tissue at 1 uCi, iv after 2 mins; type: ADME, organism-based; settings: in vivo
Spleen [48] = experiment: Biodistribution in ddY mouse spleen assessed per gram of tissue at 1 uCi, iv after 15 mins; type: ADME, organism-based; settings: in vivo, 0.25 h

Ki [1]: 35.1 nM
Compound: O=C(/C=C/c1ccc2[nH]ccc2c1)c1ccc(F)cc1

Ki [1]: 8.22 nM
Activity (Mus musculus [2]): Active
Activity (Mus musculus [3]): Active
Compound: O=C(/C=C/c1ccc2[nH]ccc2c1)c1ccc(I)cc1

Ki [1]: > 1010 nM
Compound: Nc1ccc(C(=O)/C=C/c2ccc3[nH]ccc3c2)cc1

Ki [1]: 4.46 nM
Compound: COc1ccc2cc(C(=O)/C=C/c3ccc4[nH]ccc4c3)ccc2c1

Ki [1]: > 360 nM
Compound: O=C(/C=C/c1ccc2[nH]ccc2c1)c1ccc(O)cc1

Ki [1]: 8.96 nM
Compound: O=C(/C=C/c1ccc2[nH]ccc2c1)c1ccc(Br)cc1

Ki [1]: 51.1 nM
Compound: CNc1ccc(C(=O)/C=C/c2ccc3[nH]ccc3c2)cc1

Ki [1]: 8.43 nM
Compound: O=C(/C=C/c1ccc2[nH]ccc2c1)c1ccc(Cl)cc1

Activity [1]: Dose-dependent effect
Ki [1]: 1.97 nM
Compound: CN(C)c1ccc(/C=C/C(=O)c2ccc(I)cc2)cc1

Ki [1]: 8.52 nM
Compound: COc1ccc(C(=O)/C=C/c2ccc3[nH]ccc3c2)cc1

Drug uptake (Kidney [4]): 2.78 %ID
Drug uptake (Lung [5]): 4.86 %ID
Drug uptake (Stomach [6]): 1.19 %ID
Drug uptake (Lung [7]): 4.2 %ID
Drug uptake (Heart [8]): 1.33 %ID
Drug uptake (Heart [9]): 3.27 %ID
Drug uptake (Blood [10]): 5.7 %ID
Drug uptake (Brain [11]): 0.21 %ID
Drug uptake (Intestine [12]): 2.13 %ID
Drug uptake (Intestine [13]): 1.36 %ID
Drug uptake (Stomach [14]): 0.85 %ID
Drug uptake (Blood [15]): 8.85 %ID
Drug uptake (Heart [16]): 1.72 %ID
Drug uptake (Intestine [17]): 2.32 %ID
Drug uptake (Liver [18]): 1.48 %ID
Drug uptake (Stomach [19]): 1.07 %ID
Drug uptake (Heart [20]): 1.61 %ID
Drug uptake (Kidney [21]): 3.11 %ID
Drug uptake (Spleen [22]): 1.89 %ID
Drug uptake (Lung [23]): 7.33 %ID
Drug uptake (Stomach [24]): 0.96 %ID
Drug uptake (Blood [25]): 4.15 %ID
Drug uptake (Stomach [26]): 2.01 %ID
Drug uptake (Heart [27]): 2.27 %ID
Drug uptake (Kidney [28]): 4.03 %ID
Drug uptake (Brain [29]): 0.29 %ID
Drug uptake (Brain [30]): 0.13 %ID
Drug uptake (Liver [31]): 1.43 %ID
Drug uptake (Liver [32]): 2.21 %ID
Drug uptake (Lung [33]): 3.19 %ID
Drug uptake (Intestine [34]): 1.72 %ID
Drug uptake (Brain [35]): 0.2 %ID
Drug uptake (Lung [36]): 3.4 %ID
Drug uptake (Intestine [37]): 2.01 %ID
Drug uptake (Blood [38]): 4.79 %ID
Drug uptake (Liver [39]): 1.91 %ID
Drug uptake (Liver [40]): 2.69 %ID
Drug uptake (Kidney [41]): 3.26 %ID
Drug uptake (Spleen [42]): 2.27 %ID
Drug uptake (Blood [43]): 3.72 %ID
Drug uptake (Spleen [44]): 2.4 %ID
Drug uptake (Brain [45]): 0.41 %ID
Drug uptake (Kidney [46]): 7.3 %ID
Drug uptake (Spleen [47]): 3.02 %ID
Drug uptake (Spleen [48]): 2.96 %ID
Compound: O=C(/C=C/c1ccc2[nH]ccc2c1)c1ccc([125I])cc1

Ki [1]: 5.17 nM
Compound: CN(C)c1ccc(C(=O)/C=C/c2ccc3[nH]ccc3c2)cc1
